Results published in patent US12358931B2, “3-((1R,3s,5S)-3-((7-((5-methyl-1H-pyrazol-3-yl)amino)-1,6-naphthyridin-5-yl)amino)-8-azabicyclo[3.2.1]octan-8-yl) propanenitrile as a JAK kinase inhibitor” (priority 2015, dated 2025).

How the values were obtained:
[1] = system: mouse splenic NK, B and T cells; assay: Immunosuppression effects in mouse splenic natural killer (NK) cells; format: in vivo, Balb/C mice; settings: for B and T cell populations: mouse spleen; for B and T cell populations / splenic NK cell counts: PO BID three days; for splenic NK cell counts: Example 1 up to 100 mg/kg, tofacitinib 30 mg/kg
Protocol: Depletion of mouse splenic cells is an experimental model of immunosuppression (Kudlacz et al., Am. J. of Transplantation, 2004, 4, 51-57). […] Adult male Balb/C mice (12-14 weeks of age) from Harlan were used for the study. […] Spleens were harvested 1 or 2 h post last dose and crushed immediately for cell subtype staining. Prior to fixation, fluorophore-labelled antibodies for CD19 (FITC; B cells), CD3e (PE; pan T cells) and DX5 (APC; NK cells) were incubated with splenocyte samples from each animal to allow for simultaneous, multiple subtype % analysis on the flow cytometer. The number of total spleen cells for each animal was measured by Scepter™ 2.0 Handheld Automated Cell Counter. The absolute number of lymphocyte subtype population (e.g., splenic B, T and NK cells) was calculated from the percentage of each subtype times total spleen cells for each animal. A one way ANOVA, with Dunnett's post hoc test, was used to compare the splenic lymphocytes number of the vehicle and test compound groups. The a level was set at p<0.05. Data were presented as the mean±SEM for each group.

[2] = First in human study of safety, tolerability and pharmacokinetics in healthy subjects; format: in vivo; settings: suggested by comparison with other orally administered compounds
Protocol: The compound of Example 1 was evaluated in a double-blinded, randomized, placebo-controlled, single ascending dose (SAD) and multiple ascending dose (MAD) study of safety, tolerability, and pharmacokinetics in healthy subjects. Pharmacokinetic samples were collected up to 72 hours post the final dose in both the SAD study (after the first dose) and MAD study (after 14 days of once-daily dosing). The SAD study enrolled 5 cohorts and the MAD study enrolled 4 cohorts totaling 72 subjects, of which 71 completed the dosing period.
Plasma pharmacokinetic (PK) parameters were determined by non-compartmental analysis using WinNonLin Version 6.4.0 (Pharsight, St Louis, MO). The plasma PK parameter presented here is: • Cmax: maximum concentration in plasma

[3] = system: oxazolone-induced colitis; assay: Mouse model of oxazolone-induced colitis; format: in vivo, BALB/C mice; settings: PO, 1, 3, and/or 10 mg/kg BID
Protocol: Oxazolone-induced colitis is an experimental model that has a histological resemblance to human ulcerative colitis (Heller et al. […], 2002, 17, 629-638). Adult BALB/C mice from Harlan were used in the assay. On day 1, animals were lightly anesthetized with isoflurane and the hairs between the shoulder were carefully removed before oxazolone (4%, 150 μL, 4:1 acetone: olive oil formulation) or vehicle solution was slowly applied for skin sensitization. Seven days after skin sensitization, the mice were fasted overnight, anesthetized with isoflurane inhalation, and a 1 mL syringe equipped with a 3.5-F catheter, filled with oxazolone solution, was inserted carefully about 4 cm into the colon of the mouse. Following insertion, 50 μL of the oxazolone solution (1%, 1:1 ethanol:water formulation) was injected very slowly (over 30 sec using an injection pump) into the colon. […] Two-day post oxazolone intrarectal challenge, the Disease Activity Index (DAI) was assessed by treatment-blinded experimenters for each mouse according to the criteria score: stool consistency score (0, normal; 2, loose; 4, diarrhea), gross bleeding score (0, absence; 2, blood tinged; 4, presence), and weight loss score (0, none; 1, 1%-5%; 2, 5%-10%; 3, 10%-20%; 4, more than 20%); DAI=average of (stool consistency score+gross bleeding score+weight loss score). […]

[4] = Pharmacokinetics in plasma and the GI tract in rats; format: in vivo, Sprague Dawley rats; settings: oral dosing in preclinical species
Protocol: A test compound was dosed to male Sprague Dawley rats (n=3) as described in Assay 5. […] At all time points, the plasma concentration was below the limit of quantitation of 0.001 μg/mL.

[5] = Solid state stability assessment; format: physicochemical; design: unit not given here
Description: At specific intervals, the contents of a representative sample was removed and analyzed by HPLC for chemical purity and by Karl Fischer for water content.

[6] = Protocol: A weighed sample was used and the humidity was lowest possible value (close to 0% RH) at the start of the analysis. The DMS analysis consisted of an initial drying step (0% RH) for 120 minutes, followed by two cycles of sorption and desorption with a scan rate of 5% RH/step over the humidity range of 5% RH to 90% RH. The DMS run was performed isothermally at 25° C.

| SMILES | B and T cell populations [1] | splenic NK cell counts ([1]; mouse) | oral bioavailability [2] | decrease in DAI score as compared with vehicle treated animals [3] | exposure throughout the gastrointestinal tract versus plasma [4] | effect of immunosuppression ([1]; mouse, same dose required for efficacy in the oxazolone model) | RRT 0.96 ([5]; HPLC peak at RRT 0.96, T = 0) | RRT 0.96 ([5]; HPLC peak at RRT 0.96, T = 1 Month, 40° C./75% RH) | RRT 0.96 ([5]; HPLC peak at RRT 0.96, T = 3 Month, 25° C./60% RH) | RRT 0.96 ([5]; HPLC peak at RRT 0.96, T = 3 Month, 40° C./75% RH) | RRT 1.84 ([5]; HPLC peak at RRT 1.84, T = 0) | RRT 1.84 ([5]; HPLC peak at RRT 1.84, T = 1 Month, 40° C./75% RH) | RRT 1.84 ([5]; HPLC peak at RRT 1.84, T = 3 Month, 25° C./60% RH) | RRT 1.84 ([5]; HPLC peak at RRT 1.84, T = 3 Month, 40° C./75% RH) | weight change (gain) on moisture sorption ([6]; 5% to 90% relative humidity, room temperature, listed as Crystalline 3-(1R,3s,5S)-3-((7-((5-methyl-1H-pyrazol-3-yl)amino)-1,6-naphthyrid))) | hygroscopicity ([6]; two cycles of sorption and desorption) |
| --- | --- | --- | --- | --- | --- | --- | --- | --- | --- | --- | --- | --- | --- | --- | --- | --- |
| C[C@@H]1CCN(C(=O)CC#N)C[C@@H]1N(C)c1ncnc2[nH]ccc12 [tofacitinib, reference compound] | No treatment effect | dose-dependently and significantly decreased | – | – | – | – | – | – | – | – | – | – | – | – | – | – |
| Cc1cc(Nc2cc3ncccc3c(N[C@@H]3C[C@H]4CC[C@@H](C3)N4CCC#N)n2)n[nH]1 [Example 1, 3-((1R,3s,5S)-3-((7-((5-methyl-1H-pyrazol-3-yl)amino)-1,6-naphthyridin-5-yl)amino)-8-azabicyclo[3.2.1]octan-8-yl)propanenitrile] | No treatment effect | unaffected | very low | demonstrated activity | significantly higher exposure | minimal effect | – | – | – | – | – | – | – | – | – | – |
| Cc1cc(Nc2cc3ncccc3c(N[C@@H]3C[C@H]4CC[C@@H](C3)N4CCC#N)n2)n[nH]1 [Form I, 3-((1R,3s,5S)-3-((7-((5-methyl-1H-pyrazol-3-yl)amino)-1,6-naphthyridin-5-yl)amino)-8-azabicyclo[3.2.1]octan-8-yl)propanenitrile] | – | – | – | – | – | – | 0.07 | 0.07 | 0.07 | 0.07 | 0.08 | 0.08 | 0.05 | 0.05 | less than 0.15% | non-hygroscopic |
